These molecules were tested against BTK (Homo sapiens (Human), UniProt Q06187) (assay: In vitro BTK kinase assay: BTK-POLYGAT-LS ASSAY). Settings: not given.
Sequence of BTK (Q06187 whole entry): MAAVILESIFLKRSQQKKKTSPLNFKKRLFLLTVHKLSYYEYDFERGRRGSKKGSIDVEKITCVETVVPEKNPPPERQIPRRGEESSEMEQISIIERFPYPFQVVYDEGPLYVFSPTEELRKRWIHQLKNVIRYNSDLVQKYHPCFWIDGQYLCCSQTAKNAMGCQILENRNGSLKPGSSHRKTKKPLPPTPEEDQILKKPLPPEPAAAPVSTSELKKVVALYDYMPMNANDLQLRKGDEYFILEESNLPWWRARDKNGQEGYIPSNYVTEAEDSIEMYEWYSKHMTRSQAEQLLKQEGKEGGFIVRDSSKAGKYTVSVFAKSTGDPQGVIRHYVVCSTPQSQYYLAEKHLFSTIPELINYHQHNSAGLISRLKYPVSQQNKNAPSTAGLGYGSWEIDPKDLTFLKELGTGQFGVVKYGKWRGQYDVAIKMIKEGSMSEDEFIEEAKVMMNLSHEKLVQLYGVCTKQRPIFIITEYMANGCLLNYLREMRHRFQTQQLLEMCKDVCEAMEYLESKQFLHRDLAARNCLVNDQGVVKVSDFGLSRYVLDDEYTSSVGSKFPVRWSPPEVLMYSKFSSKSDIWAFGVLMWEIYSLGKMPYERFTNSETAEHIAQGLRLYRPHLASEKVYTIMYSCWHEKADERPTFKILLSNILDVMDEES
`O=C(Nc1cccnc1)Nc1cccc(C2CCCN(c3ncnc4[nH]ccc34)C2)c1` (stereo not shown) [Cmpd 30, 1-(3-(1-(7H-pyrrolo[2,3-d]pyrimidin-4-yl)piperidin-3-yl)phenyl)-3-(pyridin-3-yl)urea] was tested, and the IC50 was 1 to 10 µM.
Molecule `O=C(Nc1cccc(C2CCCN(c3ncnc4[nH]ccc34)C2)c1)Nc1ccccc1C(F)(F)F` (stereo not shown) [compound 173] has an IC50 of 0.1 to 0.999 µM.
`O=C(NCC1COCCO1)Nc1cccc(C2CCCN(c3ncnc4[nH]ccc34)C2)c1` (stereo not shown) [compound 214] was tested, and the IC50 was 1 to 10 µM.
For `O=C1[C@H](Nc2ccccc2)CCN1[C@@H]1CCCN(c2ncnc3[nH]ccc23)C1` [compound 273], the IC50 was 0.1 to 0.999 µM.
`C[C@H]1CCCN1c1ccccc1NC(=O)Nc1cccc(C2CCCN(c3ncnc4[nH]ccc34)C2)c1` (stereo partly shown) [compound 188] was tested, and the IC50 was 1 to 10 µM.
Molecule `O=C(Nc1cccc(C2CN(c3ncnc4[nH]ccc34)CCN2CCO)c1)Nc1c(Cl)cccc1Cl` (stereo not shown) [compound 134, 1-(2,6-Dichlorophenyl)-3-(3-(1-(2-hydroxyethyl)-4-(7H-pyrrolo[2,3-d]pyrimidin-4-yl)piperazin-2-yl)phenyl)urea] has an IC50 of 0.1 to 0.999 µM.
`O=C(Nc1ccc(F)cc1)Nc1cccc(C2CCCN(c3ncnc4[nH]ccc34)C2)c1` (stereo not shown) [compound 185] gave an IC50 of 1 to 10 µM.
`O=C(Nc1cccc(C2CCCN(c3ncnc4[nH]ccc34)C2)c1)Nc1ccccn1` (stereo not shown) [Cmpd 29, 1-(3-(1-(7H-pyrrolo[2,3-d]pyrimidin-4-yl)piperidin-3-yl)phenyl)-3-(pyridin-2-yl)urea] showed an IC50 of 1 to 10 µM.
For `O=C(Nc1cc(C2CCCN(c3ncnc4[nH]ccc34)C2)ccc1OC(F)(F)F)c1ccccc1Cl` (stereo not shown) [Cmpd 86, N-(5-(1-(7H-pyrrolo[2,3-d]pyrimidin-4-yl)piperidin-3-yl)-2-(trifluoromethoxy)phenyl)-2-chlorobenzamide], the IC50 was 0.1 to 0.999 µM.
With `CC(C)(C)CNC(=O)Nc1cccc(C2CCCN(c3ncnc4[nH]ccc34)C2)c1` (stereo not shown) [compound 196] the IC50 was 1 to 10 µM.
In the case of `O=C(Nc1cccc(C2CCCN(c3ncnc4[nH]ccc34)C2)c1)Nc1ccccc1-n1ccnc1` (stereo not shown) [Cmpd 35, 1-(2-(1H-imidazol-1-yl)phenyl)-3-(3-(1-(7H-pyrrolo[2,3-d]pyrimidin-4-yl)piperidin-3-yl)phenyl)urea], the IC50 is reported as 1 to 10 µM.
`O=C(Nc1cccc(C2CCCN(c3ncnc4[nH]ccc34)C2)c1)[C@H](O)c1ccccc1` (stereo partly drawn) [Cmpd 19, (2R)—N-(3-(1-(7H-pyrrolo[2,3-d]pyrimidin-4-yl)piperidin-3-yl)phenyl)-2-hydroxy-2-phenylacetamide] was tested, and the IC50 was 1 to 10 µM.
For `O=C(Nc1ccccc1)N[C@@H]1CCN(C2CCCN(c3ncnc4[nH]ccc34)C2)C1` (stereo partly shown) [compound 220], the IC50 was 1 to 10 µM.

Same assay, conditions: read-out: IC50 (10 uM ATP); 10 uM ATP; in vitro Btk kinase assay, Example 41
`Cc1ccc(C2CCCN(c3ncnc4[nH]ccc34)C2)cc1NC(=O)Nc1ccccc1` (stereo not shown) [Cmpd 81, 1-(5-(1-(7H-pyrrolo[2,3-d]pyrimidin-4-yl)piperidin-3-yl)-2-methylphenyl)-3-phenylurea] was tested, and the IC50 was > 10 µM.
With `N[C@H](C(=O)Nc1cccc(C2CCCN(c3ncnc4[nH]ccc34)C2)c1)c1ccccc1` (stereo partly drawn) [Cmpd 20, (2S)—N-(3-(1-(7H-pyrrolo[2,3-d]pyrimidin-4-yl)piperidin-3-yl)phenyl)-2-amino-2-phenylacetamide] the IC50 was > 10 µM.
For `Cc1ccc(C2CCCN(c3ncnc4[nH]ccc34)C2)cc1NC(=O)c1ccccc1` (stereo not shown) [Cmpd 82, N-(5-(1-(7H-pyrrolo[2,3-d]pyrimidin-4-yl)piperidin-3-yl)-2-methylphenyl)benzamide], the IC50 was > 10 µM.
`CNc1cc(N2CCCC(c3cccc(NC(=O)Nc4ccccc4)c3)C2)ncn1` (stereo not shown) [Cmpd 95, 1-(3-(1-(6-(methylamino)pyrimidin-4-yl)piperidin-3-yl)phenyl)-3-phenylurea] was tested, and the IC50 was > 10 µM.
In the case of `CC(C)(C)NC1CCCN([C@@H]2CCCN(c3ncnc(N)c3F)C2)C1=O` (stereo partly drawn) [compound 290, (3′R)-1′-(6-Amino-5-fluoropyrimidin-4-yl)-3-(tert-butylamino)-1,3′-bipiperidin-2-one], the IC50 is reported as > 10 µM.
In the case of `O=C(NCC1CCC(C(F)(F)F)CC1)Nc1cccc(C2CCCN(c3ncnc4[nH]ccc34)C2)c1` (stereo not shown) [compound 257], the IC50 is reported as > 10 µM.
In the case of `Nc1ncnc(N2CCC[C@@H](N3CC=CC[C@@H](Nc4cc(F)cc(Cl)c4)C3=O)C2)c1F` [compound 347, (R,Z)-1-((R)-1-(6-amino-5-fluoropyrimidin-4-yl)piperidin-3-yl)-3-(3-chloro-5-fluorophenylamino)-3,4-dihydro-1H-azepin-2(7H)-one], the IC50 is reported as < 0.1 µM.
`O=C1C(Nc2cc(Cl)cc(C(F)(F)F)c2)CCCN1[C@@H]1CCCN(c2ncnc3[nH]ncc23)C1` (stereo partly drawn) [compound 305, (3′R)-3-(3-Chloro-5-(trifluoromethyl)phenylamino)-1′-(1H-pyrazolo[3,4-d]pyrimidin-4-yl)-1,3′-bipiperidin-2-one] was tested, and the IC50 was < 0.1 µM.
For `CCOC(=O)c1ccccc1NC1CCCN([C@@H]2CCCN(c3ncnc(N)c3F)C2)C1=O` (stereo partly drawn) [compound 295, Ethyl-2-((3′R)-1′-(6-amino-5-fluoropyrimidin-4-yl)-2-oxo-1,3′-bipiperidin-3-ylamino) benzoate], the IC50 was > 10 µM.
With `O=C(Nc1cccc(C2CCCN(c3ncnc4[nH]ccc34)C2)c1)c1ccncc1` (stereo not shown) [compound 11, N-(3-(1-(7H-pyrrolo[2,3-d]pyrimidin-4-yl)piperidin-3-yl)phenyl)isonicotinamide] the IC50 was > 10 µM.
With `CC(C)(C)c1ccc(NC(=O)Nc2cccc(C3CCCN(c4ncnc5[nH]ccc45)C3)c2)cc1` (stereo not shown) [compound 263] the IC50 was > 10 µM.
For `C[C@H](NC(=O)Nc1cccc(C2CCCN(c3ncnc4[nH]ccc34)C2)c1)C1CCCCC1` (stereo partly shown) [compound 242], the IC50 was > 10 µM.

Reference: patent US9790229B2, “Bruton's tyrosine kinase inhibitors” (priority 2009, dated 2017)
